Consider one compound from patent US20250049735A1, “MEDICINE FOR STEATOHEPATITIS” (The University of Tokyo, priority 2021, published 2025).

Assay [1] deals with Tax-iIEC-KO mice. The conditions noted are these: for concentration of betaine in the liver / concentration of choline in the liver: compared with control mice. From the text: Atp8b1^flox/flox mice were mated with villin-Cre/ERT2 transgenic mice (Stock No. 020282; The Jackson Laboratory), and Atp8b1^flox/+; villin-Cre/ERT2 mice in the obtained offsprings were then mated with Atp8b1^flox/flox mice to obtain Tamoxifen-induced, intestinal epithelial cell (IEC)-specific Atp8b1 knockout (Atp8b1Tax-iIEC-KO: Atp8b1^flox/flox; villin-Cre/ERT2) mice (Atp8b1 Tax-iIEC-KO mice). The resulting Atp8b1 Tax-iIEC-KO mice and littermate Atp8b1^flox/flox mice were used for animal experiments.
(§1) ALT and AST were determined by automatic measurement with Dri-chem (FUJIFILM, Tokyo, Japan).
The liver was cut into small pieces, was then fixed with 10% neutral buffered formalin, and was then embedded in paraffin. The small intestine was rinsed with PBS, was fixed with 10% neutral buffered formalin, was then cut into 2 segments (corresponding to the proximal side and the distal side), and was then opened longitudinally. The thus cut small intestine was opened with a toothpick, was immobilized with a pathological pin, was then fixed with 10% neutral buffered formalin, and was then embedded in paraffin. Paraffin sections (3 μm each) were prepared, and were then deparaffinized and rehydrated. Thereafter, the resulting paraffin sections were stained with hemotoxylin and eosin, and were then mounted in Entellan new (Merck, Branchburg, NJ).
The concentrations of choline, betaine, dimethylglycine (N,N-dimethylglycine) and glycerophosphorylcholine (sn-glycero-3-phosphocholine) in plasma were determined by liquid chromatography/tandem mass spectrometry (LC/MS/MS) assay. The sample was mixed with 98-fold volume of ethanol and 1-fold volume of the internal standard (IS) solution (10 μmol/L choline in water, 10 μmol/L glycerophosphorylcholine in water, and 1 μmol/L betaine in water). After vortex mixing, the sample was centrifuged at 21,500×g at 4° C. for 5 minutes. The obtained supernatant was injected into a UHPLC Nexera liquid chromatography system (Shimadzu co., Kyoto, Japan) equipped with an Ascentis Express HILIC column (2.1×50 mm, 2.7 μm, Merck KGaA, Darmstadt, Germany), and was then maintained at 4° C. The analyte was separated from the internal standard by gradient elution of mobile phase A (10 mmol/L ammonium acetate in water) and of mobile phase B (acetonitrile/water mixture) (99:1, v/v)). The gradient elution was carried out under the following conditions: 0-2 min., 82.5% B; 2-4 min., 82.5% to 5% B and 4-7 min. 5% B with a flow rate of 0.6 mL/min. The eluate was directly subjected to electrospray ionization under a positive ion mode using a 5500QTRAP mass spectrometer (Sciex pte. ltd., Toronto, Canada). All target molecules were scanned by selected reaction monitoring (SRM) mode.
Eight-week-old Tax-iIEC-KO mice and control mice were started to be fed with a control diet, a 0.3% choline supplemented diet, or a 1% choline supplemented diet, and at the same time, the Tax-iIEC-KO mice and the control mice were administered with 1 mg/day of Tamoxifen for 5 consecutive days. Thereafter, the mice were dissected at 10 weeks of age.

For assay [2], the system named is Atp8b1 E-KO mice. As to conditions: mother mice fed 1% choline supplemented diet; pups at 4 weeks of age. How it is done: All animal experiments were approved by and performed in accordance with the guidelines of the animal experiment committee of the University of Tokyo. To generate Atp8b1^flox/flox mice, ICR and C57BL/6J mice were purchased from Charles River Laboratories International, Inc. (Yokohama, Japan). Mice were kept under pathogen-free conditions at a room temperature of 23.5° C.±2.5° C. and a relative humidity of 52.5%+12.5% under a 14-hour light: 10-hour dark cycle. […] In order to supplement choline to pups, mother mice were fed with a 1.0% choline supplemented diet (D20011404, Research Diets) until weaning of their pups.
Male mice harboring the designed floxed Atp8b1 allele with flox mutation were bred with female C57BL/6 mice, and the heterozygous floxed (Atp8b1^flox/+) mice in the obtained offsprings were intercrossed to produce homozygous floxed (Atp8b1^flox/flox) mice. The Atp8b1^flox/flox mice were crossed with villin-Cre transgenic mice (Stock No: 021504; The Jackson Laboratory, Bar Harbor, ME), and Atp8b1^flox/+; villin-Cre mice in the obtained offsprings were mated with Atp8b1^flox/flox mice to obtain intestinal epithelial cell (IEC)-specific Atp8b1 knockout (Atp8b1 IEC-KO; Atp8b1^flox/flox; villin-Cre) mice (Atp8b1 E-KO). Male Atp8b1 E-KO were mated with female Atp8b1^flox/flox mice, and the resulting Atp8b1 E-KO mice and littermate Atp8b1^flox/flox mice were used for animal experiments.
Male 3 to 4-week-old intestinal epithelial cell-specific Atp8b1 knockout (Atp8b1 E-KO) mice and control mice (littermate Flox/Flox mice) underwent laparotomy under isoflurane anesthesia. […] The blood was centrifuged at 1,700×g for 15 minutes, and plasma was separated. Thereafter, the plasma was flash-frozen in liquid nitrogen and was stored at −80° C. The liver was excised and was then flash-frozen in liquid nitrogen, and thereafter, the thus frozen liver was stored at −80° C., or was used for histological and electron microscopic analyses. The small intestine was excised, was then rinsed with cold PBS containing 0.5m M taurocholic acid, and was then used for histological and electron microscopic analyses, or for preparation of epithelial cells. To isolate epithelial cells from small intestine, TTDR kit (Becton Dickinson, Becton Drive Franklin Lakes, NJ) was used. According to the manufacturer's instructions included with the kit, the small intestine was opened longitudinally, was sliced into small fragments with a size of roughly 2 mm. The fragments were incubated with 1×TTDR diluted with DMEM (11995-065, gibco) at 37° C. for 30 minutes, and the resulting fragments were then mixed with 2 mM EDTA/PBS containing 1% BSA. The thus obtained mixture was filtrated through a 70 μm cell strainer (VWR21008-952; Corning Inc, Corning, NY), and was then centrifugated at 250×g at 4° C. for 10 minutes. The obtained cell pellets were incubated with 1×Pharm Lyse (Becton Dickinson, Becton Drive Franklin Lakes, NJ) at room temperature for 15 minutes for the lysis of red blood cells, and the resultant was then mixed with 2 mM EDTA/PBS containing 1% BSA. The thus obtained mixture was centrifuged at 250×g at 4° C. for 10 minutes. The prepared epithelial cells were flash frozen in liquid nitrogen, and were then stored at −80° C.
as §1
The liver was cut into small pieces, was then fixed with 10% neutral buffered formalin, and was then embedded in paraffin. […]

The mark [3] stands for this setting: 0.3% choline supplemented diet, 8 to 10 weeks of age.
The mark [4] stands for this setting: choline supplemented diet (0.3% or 1%) from 8 to 10 weeks of age, Tamoxifen 1 mg/day for 5 days.

Read-outs that look alike come from different tables or passages of the source.

For the compound `C[N+](C)(C)CCO` [choline], in assay [1] (setting [3]), the “increase in liver injury markers (AST and ALT)” value was “suppressed”; the “onset of steatohepatitis (liver pathological images)” value is reported as “suppressed”. Besides, in assay [1] (0.3% choline supplemented diet), the “concentration of betaine in the liver” value is “recovered” and the “concentration of choline in the liver” value is reported as “recovered”. For the same compound, the “increase in liver injury markers (AST and ALT)” value in assay [1] (1% choline supplemented diet, 8 to 10 weeks of age) is “suppressed”. Also, in assay [1] (1% choline supplemented diet), the “concentration of betaine in the liver” value is on record as “recovered” and the “concentration of choline in the liver” value is given as “recovered”. For the same compound, in assay [1] (setting [4]), the body weight result was “not changed” and the small intestine length entry is “not changed”. Besides, in assay [2], the “amount of neutrophils (MPO positive cells) in the liver” value was “reduced”, the “amount of tissue macrophages (F4/80 positive cells) in the liver” value is on record as “reduced”, the body weight result is on record as “No changes were observed” and the “increase in liver weight observed in Atp8b1 E-KO pups” value is “resolved”. The small intestine length result in assay [2] is reported as “No changes were observed”.
